Reference: patent US20080146579A1, “TREATMENT OF PATIENTS WITH CHRONIC PULMONARY DISEASES AND NUTRITIONAL COMPOSITIONS THEREFORE” (N.V. Nutricia, priority 2006, published 2008)

What was measured:
[1] = daily dose of 200 mg; cited from earlier work
[2] = system: pulmonary artery pressure; details: in vivo studies; cited from earlier work
liver cells = assay: in vitro experiments in liver cells, nucleotide status; format: cell-based; details: incubation with increasing concentrations

For `COC1=C(OC)C(=O)C(C/C=C(\C)CC/C=C(\C)CC/C=C(\C)CC/C=C(\C)CC/C=C(\C)CC/C=C(\C)CC/C=C(\C)CC/C=C(\C)CC/C=C(\C)CCC=C(C)C)=C(C)C1=O` [CoQ10, Coenzyme Q10], the “increase in plasma CoQ10 levels” value [1] is given as “more than six-fold increase”.

In the case of `CC(=O)N[C@@H](CS)C(=O)O` [NAC, N-acetyl cysteine], the “endotoxin-induced rise in pulmonary artery pressure” value [2] is given as “attenuates”.

In the case of `Nc1nc2ncc(CNc3ccc(C(=O)N[C@@H](CCC(=O)O)C(=O)O)cc3)nc2c(=O)[nH]1` [folic acid], the nucleotide status (liver cells) was “able to restore the nucleotide status”.
